Assay results as given in US8211903B2, “Substituted pyrimido isoquinoline derivatives” (Mitsubishi Tanabe Pharma Corporation, priority 2008, dated 2012).
Structures can show the parent of a compound that is named as a salt.

Target: GSK3β (Homo sapiens, UniProt P49841)
Experiment: Inhibitory activity against GSK3β (33P-ATP phosphorylation of prephosphorylated GS1 peptide)
Type: biochemical
Settings: protocol 3: 7.5 μM GS1 peptide, 10 μM ATP, 50 mM Hepes pH 7.2, one hour at room temperature
Method: Four different protocols can be used.
In a first protocol: 7.5 μM of prephosphorylated GS1 peptide and 10 μM ATP (containing 300,000 cpm of ^33P-ATP) were incubated in 25 mM Tris-HCl, pH 7.5, 0.6 mM DTT, 6 mM MgCl2, 0.6 mM EGTA, 0.05 mg/ml BSA buffer for 1 hour at room temperature in the presence of GSK3beta (total reaction volume: 100 microliters).
In a second protocol: 4.1 μM of prephosphorylated GS1 peptide and 42 μM ATP (containing 260,000 cpm ^33P-ATP) were incubated in 80 mM Mes-NaOH, pH 6.5, 1 mM Mg acetate, 0.5 mM EGTA, 5 mM 2-mercaptoethanol, 0.02% Tween 20, 10% glycerol buffer for 2 hours at room temperature in the presence of GSK3beta.
In a third protocol: 7.5 μM of prephosphorylated GS1 peptide and 10 μM ATP (containing 300,000 cpm of ^33P-ATP) were incubated in 50 mM Hepes, pH 7.2, 1 mM DTT, 1 mM MgCl2, 1 mM EGTA, 0.01% Tween 20 buffer for one hour at room temperature in the presence of GSK3beta (total reaction volume: 100 microliters). […]
The reaction was stopped with 100 microliters of a solution made of 25 g polyphosphoric acid (85% P2O5), 126 ml 85% H3PO4, H2O to 500 ml and then diluted to 1:100 before use. […] Incorporated ^33P radioactivity was determined by liquid scintillation spectrometry. […]

Chain of GSK3β (P49841 whole entry): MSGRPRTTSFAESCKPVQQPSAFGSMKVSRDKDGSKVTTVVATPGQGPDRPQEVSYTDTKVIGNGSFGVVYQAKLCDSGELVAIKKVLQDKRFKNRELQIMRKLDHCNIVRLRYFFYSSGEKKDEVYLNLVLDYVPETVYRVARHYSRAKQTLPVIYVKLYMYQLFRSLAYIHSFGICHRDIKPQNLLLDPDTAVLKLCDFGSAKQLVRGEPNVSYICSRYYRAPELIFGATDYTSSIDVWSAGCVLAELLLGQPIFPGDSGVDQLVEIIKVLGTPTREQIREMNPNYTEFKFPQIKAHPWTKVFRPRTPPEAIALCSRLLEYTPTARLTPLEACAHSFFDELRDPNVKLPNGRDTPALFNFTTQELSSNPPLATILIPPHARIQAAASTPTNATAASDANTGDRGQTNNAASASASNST

IC50 [µM]	SMILES
0.33	O=c1cc(-c2ccncc2)nc2c3ccccc3ccn12 [compound 1, 2-Pyridin-4-yl-pyrimido[2,1-a]isoquinolin-4-one]
0.17	Nc1cccc2c1ccn1c(=O)cc(-c3ccncc3)nc21 [compound 5, 8-Amino-2-pyridin-4-yl-pyrimido[2,1-a]isoquinolin-4-one]

Test system: not given
Experiment: not given
Settings: not given

melting point [°C]	SMILES
270 to 272	O=c1cc(-c2ccncc2)nc2c3cccc([N+](=O)[O-])c3ccn12 (as salt: hydrochloride) [compound 4, 8-Nitro-2-pyridin-4-yl-pyrimido[2,1-a]isoquinolin-4-one]
368 to 370	O=c1cc(-c2ccncc2)nc2c3cc(O)ccc3ccn12 (as salt: oxalate) [compound 6, 10-Hydroxy-2-pyridin-4-yl-pyrimido[2,1-a]isoquinolin-4-one]
329 to 331	Nc1cccc2c1ccn1c(=O)cc(-c3ccncc3)nc21 [compound 5, 8-Amino-2-pyridin-4-yl-pyrimido[2,1-a]isoquinolin-4-one]
302 to 304	COc1ccc2ccn3c(=O)cc(-c4ccncn4)nc3c2c1 [compound 7, 10-Methoxy-2-pyrimidin-4-yl-pyrimido[2,1-a]isoquinolin-4-one]
271 to 273	COc1cc2c(cc1OC)-c1nc(-c3ccncc3)cc(=O)n1CC2 [compound 9, 9,10-Dimethoxy-2-pyridin-4-yl-6,7-dihydro-pyrimido[2,1-a]isoquinolin-4-one]
